This is an account of results in BindingDB's records for doi:10.1016/s0960-894x(98)00091-2 (Eli Lilly, 1999).

The assay concerns the target NMDA receptor (Rattus norvegicus). As to the kind of experiment: Binding affinity against Ionotropic glutamate receptor using [3H]- CGS-19755 displacement from rat forebrain preparations.

Each structure is given as a SMILES string. pIC50: −log10 of the molar value.

The term pIC50 denotes −log10 of the IC50, conventionally taken in molar units. For `N[C@@H](C[C@H](CCC(c1ccccc1)c1ccccc1)C(=O)O)C(=O)O` [(2S,4S)-2-Amino-4-(3,3-diphenyl-propyl)-pentanedioic acid], the negative logarithm of the IC50 (pIC50) is 4.88.
